This note sets out measurements from ChEMBL document CHEMBL3400135, “Design, synthesis and biological evaluation of novel homocamptothecin analogues as potent antitumor agents” (Bioorg Med Chem, 2015).

A short description of test [1]: Inhibition of survivin protein expression in human HCT116 cells at 1 nM after 48 hrs by Western blot method. The conditions noted are these: HCT-116. It counts as functional, cell-based.
For test [2], the target named is T1, DNA topoisomerase 1 (Homo sapiens) (UniProt P11387).
T1 sequence (whole entry): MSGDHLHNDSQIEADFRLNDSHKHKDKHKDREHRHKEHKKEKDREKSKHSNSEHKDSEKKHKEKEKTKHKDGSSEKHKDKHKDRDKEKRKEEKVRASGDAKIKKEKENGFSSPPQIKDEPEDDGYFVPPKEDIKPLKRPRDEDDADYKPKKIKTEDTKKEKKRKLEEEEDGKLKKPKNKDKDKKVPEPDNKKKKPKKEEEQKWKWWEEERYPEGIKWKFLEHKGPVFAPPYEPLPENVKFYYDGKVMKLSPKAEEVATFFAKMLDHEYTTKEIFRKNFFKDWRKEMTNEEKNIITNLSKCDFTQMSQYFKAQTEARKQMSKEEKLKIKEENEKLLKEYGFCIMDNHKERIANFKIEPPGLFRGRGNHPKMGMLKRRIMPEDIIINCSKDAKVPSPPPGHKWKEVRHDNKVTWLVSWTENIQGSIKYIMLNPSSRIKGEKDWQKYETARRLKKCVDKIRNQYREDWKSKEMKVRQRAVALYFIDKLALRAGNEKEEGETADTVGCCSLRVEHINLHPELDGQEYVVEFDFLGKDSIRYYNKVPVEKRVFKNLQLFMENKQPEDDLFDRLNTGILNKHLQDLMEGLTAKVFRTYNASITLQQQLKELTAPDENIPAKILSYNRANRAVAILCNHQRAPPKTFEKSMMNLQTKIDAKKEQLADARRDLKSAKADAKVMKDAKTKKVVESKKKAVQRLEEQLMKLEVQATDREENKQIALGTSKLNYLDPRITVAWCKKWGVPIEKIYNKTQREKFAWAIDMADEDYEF
As to the kind of experiment: Inhibition of topoisomerase 1 (unknown origin) at 100 uM using supercoiled pBR322 DNA substrate by ethidium bromide staining based electrophoresis method.

Test [3] is described as follows: Inhibition of survivin protein expression in human HCT116 cells at 5 nM after 48 hrs by Western blot method. It is filed as functional, cell-based. The conditions noted are these: HCT-116.
Test [4] concerns the target T1, DNA topoisomerase 1 (Homo sapiens). The test can be described thus: Inhibition of topoisomerase 1 (unknown origin) at 10 uM using supercoiled pBR322 DNA substrate by ethidium bromide staining based electrophoresis method.
Test [5] is described as follows: Cytotoxicity against human HCT116 cells after 72 hrs by sulforhodamine B assay. Conditions: Homo sapiens, HCT-116, 72 h. It counts as functional, cell-based, HCT-116. (In SRB staining, fixed cells bind dye roughly in proportion to their protein.)
In test [6] the test system is HT-29. As to the kind of experiment: Cytotoxicity against human HT-29 cells after 72 hrs by sulforhodamine B assay. The conditions noted are these: Homo sapiens, HT-29, 72 h. It is filed as functional, cell-based.

Active and inactive are the calls of the source. The rule behind the calls is not given here.

On to `CC[C@]1(O)c2cc3n(c(=O)c2COC(=O)[C@H]1OC)Cc1c-3nc2cc3c(cc2c1-c1ccncc1)OCO3`, for which the inhibition result in test [1], in test [2] and in test [3] was “Active” throughout.
As for `CC[C@]1(O)c2cc3n(c(=O)c2COC(=O)[C@H]1OC)Cc1c-3nc2ccc(OC)cc2c1-c1ccncc1`, the inhibition result in test [4] and in test [2] was “Active” throughout. For the same compound, the half-inhibitory concentration (IC50) (as a rule, the concentration at which inhibition is half-maximal) was determined as 3.33 nM in test [5] and 6.76 nM in test [6].
As to `CC[C@]1(O)c2cc3n(c(=O)c2COC(=O)[C@H]1OC(C)=O)Cc1c-3nc2ccccc2c1C1CCN(C)CC1`, the inhibition entry in test [4] and in test [2] was “Active” throughout. Moreover, the IC50 in test [5] amounted to 9.74 nM; in test [6] it was 63.8 nM.
In the case of `CC[C@]1(O)c2cc3n(c(=O)c2COC(=O)[C@H]1OC)Cc1c-3nc2ccccc2c1C1CCN(C)CC1`, the inhibition entry in test [4] and in test [2] was “Active” throughout. The IC50 in test [5] came out at 3.23 nM; in test [6] it was 17.2 nM.
As to `CC[C@]1(O)c2cc3n(c(=O)c2COC(=O)[C@H]1OC)Cc1cc2cc(O)ccc2nc1-3`, the inhibition result in test [4] and in test [2] was “Active” in each case. Besides, the IC50 came to 4.46 nM in test [5] and 26.7 nM in test [6].
On to `CC[C@]1(O)c2cc3n(c(=O)c2COC(=O)[C@H]1OC(C)=O)Cc1c-3nc2ccc(OC)cc2c1C1CCN(C)CC1`, for which the inhibition entry in test [4] and in test [2] was “Active” in each case. The IC50 in test [5] turned out to be 13.2 nM; in test [6] it was 54.7 nM.
For the compound `CC[C@]1(O)c2cc3n(c(=O)c2COC(=O)[C@H]1OC)Cc1c-3nc2ccccc2c1-c1cn(C)cn1`, the inhibition entry in test [4] and in test [2] was “Active” in each case. The IC50 in test [5] is 1.26 nM; in test [6] it was 4.11 nM.
As for `CC[C@]1(O)c2cc3n(c(=O)c2COC(=O)[C@H]1OC(C)=O)Cc1c-3nc2ccc(OC)cc2c1-c1ccncc1`, the inhibition result in test [4] and in test [2] was “Active” throughout. In addition, the half-inhibitory concentration (IC50) in test [5] was determined as 7.99 nM; in test [6], 31 nM.
With `CC[C@]1(O)c2cc3n(c(=O)c2COC(=O)[C@H]1OC)Cc1c-3nc2ccc(OC)cc2c1C1CCN(C)CC1`, the inhibition entry in test [4] and in test [2] was “Active” each time. Moreover, the half-inhibitory concentration (IC50) in test [5] stood at 8.23 nM; in test [6] it was 27.1 nM.
For `CC[C@]1(O)c2cc3n(c(=O)c2COC(=O)[C@H]1OC)Cc1cc2ccccc2nc1-3`, the inhibition entry in test [4] and in test [2] was “Active” each time. The results for the IC50 in test [5] and in test [6] were 1.72 nM and 4.79 nM, respectively.
With `CC[C@]1(O)c2cc3n(c(=O)c2COC(=O)[C@H]1OC(C)=O)Cc1c-3nc2ccccc2c1-c1ccncc1`, the inhibition result in test [2] was “inactive”. The concentration for half-maximal inhibition (IC50) is 2.95 nM in test [5] and 11.4 nM in test [6].
Turning to `CC[C@]1(O)c2cc3n(c(=O)c2COC(=O)[C@H]1OC)Cc1c-3nc2ccccc2c1-c1ccncc1`, the inhibition result in test [4] and in test [2] was “Active” each time. Further, the IC50 came to 2.12 nM in test [5] and 7.18 nM in test [6].
As for `CC[C@]1(O)c2cc3n(c(=O)c2COC(=O)[C@H]1OC(C)=O)Cc1c-3nc2ccccc2c1-c1cn(C)cn1`, the inhibition entry in test [4] and in test [2] was “Active” each time. Moreover, the IC50 in test [5] worked out at 1.47 nM; in test [6], 9.11 nM.
For the compound `CC[C@]1(O)c2cc3n(c(=O)c2COC(=O)[C@H]1OC)Cc1cc2cc4c(cc2nc1-3)OCO4`, the inhibition entry in test [1], in test [4], in test [2] and in test [3] was “Active” each time. For the same compound, the IC50 in test [5] stood at 0.2 nM; in test [6], 0.3 nM.
